Test results published in patent US11072618B2, “Compounds, compositions and methods” (Denali Therapeutics Inc., priority 2016, dated 2021).
pIC50: −log10 of the molar value.

Target: T1, GST-human receptor interacting protein kinase 1 fusion (8-327) enzyme (Homo sapiens, UniProt Q13546)
T1 sequence (Q13546 8-327): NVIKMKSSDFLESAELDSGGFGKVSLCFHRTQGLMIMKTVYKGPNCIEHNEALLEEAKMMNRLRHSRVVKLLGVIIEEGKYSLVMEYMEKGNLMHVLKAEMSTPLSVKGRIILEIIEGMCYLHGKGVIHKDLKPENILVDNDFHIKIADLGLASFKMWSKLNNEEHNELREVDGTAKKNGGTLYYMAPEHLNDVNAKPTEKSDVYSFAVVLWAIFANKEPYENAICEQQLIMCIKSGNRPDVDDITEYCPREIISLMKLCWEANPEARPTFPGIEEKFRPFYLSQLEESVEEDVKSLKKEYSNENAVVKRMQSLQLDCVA
Experiment: Fluorescent Polarization Binding (FP Binding) assay, receptor interacting protein kinase 1
Conditions: 10 nM enzyme, 5 nM fluorescent-labeled ligand, RT 30 min, mean of a minimum of two independent experiments
Description: Fluorescent Polarization Binding (FP Binding) assay (Berger S. B. et al. (2015) Cell Death Discovery, 1: 15009; Maki J. L. et al. (2012) Anal Biochem., 427(2): 164-174) was performed in polystyrene low volume 384-well black plate, at Room Temperature (RT) in a final volume of 10.1 μL/well using 10 nM of GST-human receptor interacting protein kinase 1 fusion (8-327) enzyme and 5 nM of fluorescent-labeled ligand (14-(2-{[3-({2-{[4-(cyanomethyl)phenyl]amino}-6-[(5-cyclopropyl-1H-pyrazol-3-yl)amino]-4-pyrimidinyl}amino) propyl]amino}-2-oxoethyl)-16,16,18,18-tetramethyl-6,7,7a,8a,9,10,16,18-octahydrobenzo[2″,3″]indolizino[8″,7″:5′,6′]pyrano[3′,2′:3,4]pyrido[1,2-a]indol-5-ium-2-sulfonate.
Test compounds were serially diluted in DMSO at 100 fold final concentrations in the assay (1% DMSO final). In each well of a 384-well Plate were dispensed 0.1 μL of compound solution (or DMSO for controls) followed by 5 μL of GST-human receptor interacting protein kinase 1 fusion (8-327) enzyme at twice the final concentrations in assay buffer (50 mM HEPES pH 7.5, 10 mM NaCl, 50 mM MgCl2, 0.02% CHAPS, 0.5 mM DTT and 0.01% Pluronic F127). For negative control the enzyme addition was replaced by assay buffer only.
After addition of 5 μL of fluorescent-labeled ligand at twice the final concentrations in assay buffer, the plate was incubated at RT for 30 min. At the end, the binding was measured as FP value with the Envision (PerkinElmer) plate reader using filter for an excitation λ=531 nm FP and an emission λ=595 nm FP (S & P-pol).
Test compound inhibition was expressed as percent inhibition of internal assay controls. For concentration response curves, normalized data is fit and IC50 determined using XL-fit (IDBS) for Excel. IC50 were averaged to determine a mean value, for a minimum of two independent experiments.
Receptor interacting protein kinase 1 activity of exemplary compounds was determined according to the above general procedures.

pIC50 | Structure (SMILES)
> 6.00 | CC1(C)CN2CCC(c3cccc(F)c3)N2C1=O (single isomer, unassigned) [Compound 3]
> 6.00 | CCC1(C)CN2CCC(c3cc(F)cc(F)c3)N2C1=O (single isomer, unassigned) [Compound 22]
4.52 to 6.00 | CC(F)(F)C1(C)CN2CCC(c3cncc(C#N)c3)N2C1=O (single isomer, unassigned) [Compound 36]
4.52 to 6.00 | CC1(C(F)F)CN2CCC(c3cncc(C#N)c3)N2C1=O (single isomer, unassigned) [Compound 38]
> 6.00 | CC1(C(F)F)CN2CCC(c3cncc(C#N)c3)N2C1=O (single isomer, unassigned) [Compound 39]
> 6.00 | CC1(C(F)F)CN2CCC(c3cncc(F)c3)N2C1=O (single isomer, unassigned) [Compound 45]
> 6.00 | CCC1(C(F)F)C[C@H]2CCC(c3cccc(F)c3)N2C1=O (single isomer, unassigned) [Compound 55]
> 6.00 | CCC1(C(F)F)C[C@@H]2CCC(c3cccc(F)c3)N2C1=O (single isomer, unassigned) [Compound 57]
> 6.00 | CC1(C)CN2CC[C@@H](c3ccccc3)N2C1=O [Compound 1]
4.52 to 6.00 | CCC1(CC)CN2CCC(c3ccc(F)cc3)N2C1=O (centres unmarked) [Compound 2]
4.52 to 6.00 | CC1(C)CN2CCC(c3cccc(C#N)c3)N2C1=O (centres unmarked) [Compound 4]
> 6.00 | CC1(C)CN2CCC(c3cc(F)cc(C#N)c3)N2C1=O (centres unmarked) [Compound 5]
> 6.00 | CCC1(C)CN2CCC(c3cccc(F)c3)N2C1=O (centres unmarked) [Compound 7]
4.52 to 6.00 | CC1(C)CCN2CCC(c3ccccc3)N2C1=O (centres unmarked) [Compound 8]
4.52 to 6.00 | CC1(C)CN2CCC(c3ccc(F)c(F)c3)N2C1=O (centres unmarked) [Compound 9]
> 6.00 | CCC1(C)CN2CCC(c3ccc(F)c(F)c3)N2C1=O (centres unmarked) [Compound 10]
> 6.00 | CC1(C)CC2(CN3CCC(c4cccc(F)c4)N3C2=O)C1 (centres unmarked) [Compound 12]
> 6.00 | CC(F)(F)C1(C)CN2CCC(c3cccc(F)c3)N2C1=O (centres unmarked) [Compound 13]
> 6.00 | C=CCC1(C)CN2CCC(c3cccc(F)c3)N2C1=O (centres unmarked) [Compound 14]
4.52 to 6.00 | CCCC1(C)CN2CCC(c3cccc(F)c3)N2C1=O (centres unmarked) [Compound 15]
> 6.00 | CCCC1(C)CN2CCC(c3cccc(F)c3)N2C1=O (centres unmarked) [Compound 16]
> 6.00 | CC1(CC2CC2)CN2CCC(c3cccc(F)c3)N2C1=O (centres unmarked) [Compound 17]
> 6.00 | CCC1(C(F)F)CN2CCC(c3cncc(Br)c3)N2C1=O (centres unmarked) [Compound 18]
> 6.00 | CCC1(C(F)F)CN2CCC(c3cncc(C#N)c3)N2C1=O (centres unmarked) [Compound 19]
> 6.00 | CCC1(C(F)F)CN2CCC(c3cccc(F)c3)N2C1=O (centres unmarked) [Compound 20]

pIC50 | Structure (SMILES)
> 6.00 | CCC1(C)CN2CCC(c3cc(F)cc(F)c3)N2C1=O (centres unmarked) [Compound 21]
> 6.00 | CCC1(C)CN2CCC(c3cc(F)cc(C#N)c3)N2C1=O (centres unmarked) [Compound 23]
> 6.00 | CCC1(C)CN2CCC(c3cncc(F)c3)N2C1=O (centres unmarked) [Compound 25]
4.52 to 6.00 | CCC1(C)CN2CCC(c3cncc(F)c3)N2C1=O (centres unmarked) [Compound 26]
> 6.00 | CC1(CC(F)F)CN2CCC(c3cccc(F)c3)N2C1=O (centres unmarked) [Compound 27]
> 6.00 | CC1(CC#N)CN2CCC(c3cccc(F)c3)N2C1=O (centres unmarked) [Compound 28]
> 6.00 | CCC1(CCl)CN2CCC(c3cccc(F)c3)N2C1=O (centres unmarked) [Compound 29]
> 6.00 | CCC1(CF)CN2CCC(c3cccc(F)c3)N2C1=O (centres unmarked) [Compound 30]
> 6.00 | CCC1(C(F)F)CN2CCC(c3cc(F)cc(C#N)c3)N2C1=O (centres unmarked) [Compound 31]
> 6.00 | CCC1(C(F)F)CN2CCC(c3cncc(F)c3)N2C1=O (centres unmarked) [Compound 33]
4.52 to 6.00 | CCC1(C(F)F)CN2CCC(c3cncc(F)c3)N2C1=O (centres unmarked) [Compound 34]
> 6.00 | CC1(CC2CC2)CN2CCC(c3cc(F)cc(C#N)c3)N2C1=O (centres unmarked) [Compound 35]
> 6.00 | CC(F)(F)C1(C)CN2CCC(c3cncc(C#N)c3)N2C1=O (centres unmarked) [Compound 37]
> 6.00 | CC1(C(F)F)CN2CCC(c3cc(F)cc(C#N)c3)N2C1=O (centres unmarked) [Compound 40]
4.52 to 6.00 | CC1(C(F)F)CN2CCC(c3cc(F)cc(C#N)c3)N2C1=O (centres unmarked) [Compound 41]
> 6.00 | CC(F)(F)C1(C)CN2CCC(c3cc(F)cc(C#N)c3)N2C1=O (centres unmarked) [Compound 42]
4.52 to 6.00 | CC(F)(F)C1(C)CN2CCC(c3cc(F)cc(C#N)c3)N2C1=O (centres unmarked) [Compound 43]
4.52 to 6.00 | CC(F)(F)C1(C)CN2CCC(c3cncc(F)c3)N2C1=O (centres unmarked) [Compound 46]
> 6.00 | CC(F)(F)C1(C)CN2CCC(c3cncc(F)c3)N2C1=O (centres unmarked) [Compound 47]
4.52 to 6.00 | O=C1N2C(c3cncc(F)c3)CCN2CC1(CC(F)(F)F)C(F)F (centres unmarked) [Compound 48]
> 6.00 | CC1(CC(F)(F)F)CN2CCC(c3cncc(F)c3)N2C1=O (centres unmarked) [Compound 50]
4.52 to 6.00 | CC1(CC(F)(F)F)CN2CCC(c3cncc(F)c3)N2C1=O (centres unmarked) [Compound 51]
> 6.00 | O=C1N2C(c3cncc(F)c3)CCN2CC1(CC1CC1)C(F)F (centres unmarked) [Compound 52]
4.52 to 6.00 | O=C1N2C(c3cncc(F)c3)CCN2CC1(CC1CC1)C(F)F (centres unmarked) [Compound 53]
> 6.00 | CCCC1(C(F)F)CN2CCC(c3cncc(C#N)c3)N2C1=O (centres unmarked) [Compound 54]
